Measurements as given in US10376486B2, “Compositions and methods for reactivating latent viral infections” (priority 2014, dated 2019).
“Also recorded” adds a separate entry of the source.

What was measured:
[1] = system: PKCδ/θ-IκBα/ε-NF-κB signaling; settings: IngB treatment; cited from earlier work
[2] = system: PEP005-induced HIV reactivation in J-Lat A1 cells; experiment: Suppression of PEP005-induced HIV reactivation in J-Lat A1 cells (GFP expression by RT-qPCR); type: cell-based; settings: 6 nM PEP005, PKC inhibitor 1, 2 or 5 μM, Bay 11-7082 2.5 μM
Protocol: FIG. 4: PEP005-induced HIV reactivation is mediated through PKCδ/θ-IκBα/ε-NF-κB signaling. (A) PEP005-induced HIV reactivation is suppressed by inhibition of the PKCδ/θ. J-Lat A1 cells were treated with 6 nM of PEP005 in the presence of 1, 2 or 5 μM of PKC inhibitor (PKCθ/δ inhibitor; Milipore/Calbiochem (539649)) and evaluated for GFP expression by RT-qPCR. (B) NF-κB inhibition partially suppresses PEP005-induced HIV reactivation in J-Lat A1 cells. J-Lat A1 cells were treated with 6 nM of PEP005 in the presence of 2.5 μM Bay 11-7082, an NF-κB inhibitor, and were evaluated for GFP expression by RT-qPCR. (C) J-Lat A1 cells were treated with PEP005 or alternatively with PKC inhibitor alone or in the presence of PEP005 and the relative binding of NF-κB to the HIV LTR was determined using ChIP-qPCR.
Real-time PCR analysis of GFP or HIV gene expression: Total RNA was isolated from J-Lat A1 cells or U1 cells using the RNeasy Kit (Qiagen) followed by digestion with DNase I (Invitrogen). First strand cDNA was synthesized using Superscript II (Invitrogen). Real-time PCR (TaqMan) was performed on a ViiA 7 detector using the following primer/probe set: for J-Lat A1 cells, primer 1: 5′-[…]-3′ (SEQ ID NO:5), primer 2: 5′-[…]-3 ‘ (SEQ ID NO:6), probe 5’-FAM CTACAAGACCC G[…]-3′ (SEQ ID NO:7), for U1 cells HIV 5′ LTR primers/probe were used (see above). […]

[3] = system: latent HIV in J-Lat A1 cells; experiment: HIV latency reactivation in J-Lat A1 cells (GFP expression by flow cytometry); type: cell-based; settings: GFP, 24 h, PEP005 2-40 nM, GSK343 2 μM
Protocol: FIG. 1: PEP005 induces reactivation of HIV latency in vitro. J-Lat A1 cells were exposed to different concentrations of PEP005 and virus reactivation was measured by GFP expression using flow cytometry. Cell viability was determined by Live/Dead dye staining. (A) Chemical Structure of PEP005. […] (D) PEP005 potently reactivates latent HIV in cell lines compared with other LRAs. J-Lat A1 cells were treated with 10 nM PEP005, 500 nM SAHA, 2 μM JQ1, 2 μM GSK343, 10 ng/ml TNF, 2 μM Prostratin, or 5 ng/ml PMA for 24 hours and the percentage of GFP expression was evaluated using flow cytometry. *, p<0.05; **, p<0.01.
FIG. 2: PEP005 synergizes with other latency reversing agents in reactivating latent HIV. (A) J-Lat A1 cells were treated with 5 ng/ml PMA, 6 nM PEP005, 500 nM SAHA, 2 μM JQ1, 2 μM GSK343, or 10 μM Prostratin alone or in combination with 6 nM PEP005 for 24 hours and the percentage of GFP expressing cells was determined using flow cytometry. **, p<0.01; *, p<0.05 compared with control treatment; **, p<0.01; *, p<0.05 compared with PEP005 treatment alone. (B) The U1 cells were treated with 5 ng/ml PMA, 6 nM PEP005, 500 nM SAHA, 2 μM JQ1, or 2 μM GSK343, alone or in combination with 6 nM PEP005 for 24 hours and the HIV transcription was evaluated using RT-qPCR. Numbers indicate fold-increase over the control. **, p<0.01; *, p<0.05 compared with control treatment; **, p<0.01; *, p<0.05 compared with PEP005 treatment alone. […] The Bliss independence model was utilized for calculation of synergy for LRA combinations. Dotted horizontal line signifies pure additive effect (Δfaxy=0). Synergy is defined as Δfaxy>0 while Δfaxy<0 indicates antagonism. Statistical significance was determined using a one tailed ratio t-test comparing predicted and observed drug combination effects. *p<0.05; **p<0.01.
J-Lat A1 cells (harboring a single copy of latent HIV LTR and one copy of green fluorescent protein gene under the HIV LTR control) or U1 cells (harboring two latent HIV genomes with defective Tat gene) were cultured in RPMI1640 medium with 10% fetal bovine serum (FBS) and 1% Pen/strep in a 37° C. incubator containing 5% CO2 [24,31]. Both of the cell lines were obtained from NIH AIDS Reagent Program. For reactivation of HIV LTR, cells were treated with PMA (Sigma), JQ1 (Biovision), Prostatin (Sigma), SAHA (Santa Cruz), TNF-α (BD), GSK343 (Sigma), or PEP005 (Tocris Bioscience) for 24 h. HIV reactivation was quantified by GFP expression using flow cytometry and the data were analyzed using FlowJo Software for J-Lat A1 cells, or by quantitative RT-PCR (RT-qPCR) for J-Lat A1 and U1 cells. Cell viability was evaluated using Live/Dead dye (Life Technologies) by flow cytometry. So far, there is not a single in vitro cell culture model available that captures all the features of HIV latency. However, PKC agonists seem to reactivate latent HIV in all the cell culture models of viral latency. Similar to other J-Lat cell lines, the J-Lat A1 clone has been widely used by researchers for HIV latency studies. The T-cell-derived J-Lat A1 cells harbor one copy of a construct containing a Tat and a green fluorescent protein (GFP) gene framed by the 5′ and 3′ HIV LTR [32]. The J-Lat A1 cells also contain the TAR loop located within the R region of HIV LTR (nt +1 to +60), which provides an opportunity for Tat-TAR interactions for the modulation of transcription and transcriptional elongation. […]

For CCCCCC(=O)O[C@H]1C(C)=C[C@]23C(=O)[C@@H](C=C(CO)[C@@H](O)[C@]12O)[C@H]1[C@@H](C[C@H]3C)C1(C)C [IngB, ingenol-3-hexanoate], the “expression of NF-κB/p65 protein, earlier report [24]” value [1] is given as “increased expression of NF-κB/p65 protein”.

In the case of Cc1ccc(S(=O)(=O)/C=C/C#N)cc1 [Bay-11-7082], the “reduction of PEP005-induced latent HIV reactivation” value [2] is reported as “approximately 50%”.

For CCCc1cc(C)[nH]c(=O)c1CNC(=O)c1cc(-c2ccnc(N3CCN(C)CC3)c2)cc2c1cnn2C(C)C [GSK343], the “induction of HIV expression, agent alone” value [3] was “failed to induce HIV expression; also recorded: could not effectively induce HIV expression; also recorded: no capacity to reactivate latent HIV by itself”.
